{"source": "paper PMC5006645", "about": "(EBioMedicine, 2016)", "key": {"[1]": {"tested_on": "S273pPPARγ", "assay": "Inhibition of S273 phosphorylation of PPARγ", "assay_type": "biochemical"}, "[2]": {"assay": "Plasma levels at the end of experiments", "assay_type": "in vivo, C57BL/6 mice", "conditions": "for concentration at 4 days: C57BL/6, mouse, plasma, 5 mg/kg/d"}, "[3]": {"tested_on": "bone and marrow fat of DIO C57BL/6 mice", "assay_type": "in vivo"}, "[4]": {"tested_on": "cortical bone", "assay": "Cortical tissue mineral density", "assay_type": "in vivo, C57BL/6 mice", "conditions": "mouse model not stated; control 954.6 ± 17.6"}, "[5]": {"tested_on": "marrow MSCs", "assay": "Marrow MSC cultures: adipocyte markers and CFU-OB osteoblast differentiation", "assay_type": "cell-based", "conditions": "marrow MSC culture, 6 days; 10 μM SR10171 or 1 μM rosiglitazone"}, "[6]": {"tested_on": "non-adherent bone marrow cells", "assay": "Osteoclastogenesis assay from non-adherent bone marrow cells", "assay_type": "cell-based", "conditions": "ex vivo; 10 μM SR10171 or 1 μM rosiglitazone; M-CSF and RANKL"}, "[7]": {"assay": "Glucose tolerance test in DIO mice", "assay_type": "in vivo, C57BL/6 mice", "conditions": "DIO animals, 25 mg/kg/d, 4 weeks"}, "[8]": {"assay": "Body weight of treated mice", "assay_type": "in vivo, C57BL/6 mice"}, "[9]": {"tested_on": "osteocytes from femora cortical bone", "assay": "Gene expression in osteocytes freshly isolated from femora of treated animals", "assay_type": "in vivo, C57BL/6 mice"}, "[10]": {"tested_on": "trabecular and cortical bone of lean C57BL/6 mice", "assay": "Lean mice experiment: bone mCT and histomorphometry", "conditions": "for mineral apposition rate (MAR) and bone formation rate (BFR): proximal tibia"}, "[11]": {"tested_on": "PPARγ", "assay_type": "cell-based", "conditions": "AD2 cells; 1 μM rosiglitazone or 5 μM SR10171 1 h, then TNF-α 50 ng/ml 1 h"}, "[12]": {"tested_on": "TCF/LIF/β-catenin complex", "assay": "Top-Flash luciferase reporter in U33/γ2 cells", "assay_type": "cell-based", "conditions": "72 h"}, "[13]": {"target": "T1, PPARα (Homo sapiens, UniProt Q07869)", "T1 sequence (Q07869 200-468 limits assumed)": "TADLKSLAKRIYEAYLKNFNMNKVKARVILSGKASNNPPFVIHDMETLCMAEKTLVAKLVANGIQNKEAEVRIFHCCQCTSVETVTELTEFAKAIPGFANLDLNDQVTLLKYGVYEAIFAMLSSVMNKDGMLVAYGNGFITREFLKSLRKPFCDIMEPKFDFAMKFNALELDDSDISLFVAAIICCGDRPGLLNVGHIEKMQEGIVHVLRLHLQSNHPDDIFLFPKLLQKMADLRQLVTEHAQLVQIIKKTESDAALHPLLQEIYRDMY"}, "[14]": {"tested_on": "trabecular and cortical bone of lean C57BL/6 mice", "conditions": "15 mg/kg/d, 8 weeks; previously established, ref not given; cited from earlier work"}, "[15]": {"conditions": "midshaft tibia, calcein labeling"}}, "data": [{"smiles": "Cc1c(C)n(Cc2cccc(OC(C)(C)C(=O)O)c2)c2ccc(C(=O)N[C@@H](C)c3ccc(C(C)(C)C)cc3)cc12", "note": "[SR10171, (S)-2-(3-((5-((1-(4-(tert-butyl)phenyl)ethyl)carbamoyl)-2,3-dimethyl-1H-indol-1-yl)methyl)phenoxy)-2-methylpropanoic acid]", "values": [{"measurement": "S273 phosphorylation blocking activity, lower than rosiglitazone", "setting": "[1]; relative to rosiglitazone", "result": 50, "unit": "%"}, {"measurement": "concentration at 4 days", "setting": "[2]", "result": 4010, "unit": "nM"}, {"measurement": "retention levels in plasma, higher than rosiglitazone", "setting": "[2]; animals treated for 4 days", "result": 2.5, "unit": "fold"}, {"measurement": "decrease in marrow fat volume vs no drug control", "setting": "[3]; 25 mg/kg/d, 4 weeks, tibia", "result": "~5", "unit": "fold"}, {"measurement": "periosteal labeling, times larger than control", "setting": "[3]; [15]", "result": 9, "unit": "fold"}, {"measurement": "cortical tissue mineral density (TMD)", "setting": "[4]", "result": "978.6 ± 10.4", "unit": "mg HA/cm^3"}, {"measurement": "basal expression of Fabp4 and Adipoq", "setting": "[5]", "result": "decreased"}, {"measurement": "number of multi-nucleated TRAP-positive osteoclast-like cells", "setting": "[6]", "result": "increased"}, {"measurement": "glucose tolerance", "setting": "[7]", "result": "normalized"}, {"measurement": "body weight", "setting": "[8]; DIO mice maintained on HFD, 25 mg/kg/d, 4 weeks", "result": "decreased"}, {"measurement": "body weight", "setting": "[8]; lean animals, 15 mg/kg/d, 8 weeks", "result": "no impact"}, {"measurement": "Dkk1 expression in osteocytes of treated animals", "setting": "[9]", "result": "decreased"}, {"measurement": "Sost expression in osteocytes of treated animals", "setting": "[9]", "result": "decreased"}, {"measurement": "Trabecular bone mass in proximal tibia, increase vs non-treated controls", "setting": "[10]; 15 mg/kg/d, 8 weeks", "result": 26, "unit": "%"}, {"measurement": "decrease of number of marrow adipocytes", "setting": "[10]; 15 mg/kg/d, 8 weeks", "result": 50, "unit": "%"}, {"measurement": "periosteal labeling, times larger than control", "setting": "[10]; [15]", "result": 1.5, "unit": "fold"}, {"measurement": "mineral apposition rate (MAR) and bone formation rate (BFR)", "setting": "[10]; 15 mg/kg/d, 8 weeks", "result": "increase"}]}, {"smiles": "CN(CCOc1ccc(CC2SC(=O)NC2=O)cc1)c1ccccn1", "note": "(racemic) [Rosiglitazone, (RS)-5-[4-(2-[methyl(pyridin-2-yl)amino]ethoxy)benzyl]thiazolidine-2,4-dione, reference compound]", "values": [{"measurement": "% inhibition S273pPPARγ (20 μM)", "setting": "[1]; 20 μM", "result": 100, "unit": "%"}, {"measurement": "concentration at 4 days", "setting": "[2]", "result": 1670, "unit": "nM"}, {"measurement": "cortical tissue mineral density (TMD)", "setting": "[4]", "result": "954.5 ± 17.9", "unit": "mg HA/cm^3"}, {"measurement": "phosphorylation of S112 of PPARγ", "setting": "[11]", "result": "alters"}, {"measurement": "phosphorylation of S273 of PPARγ", "setting": "[11]", "result": "block"}, {"measurement": "basal expression of Fabp4 and Adipoq", "setting": "[5]", "result": "increased"}, {"measurement": "number of multi-nucleated TRAP-positive osteoclast-like cells", "setting": "[6]", "result": "increased"}, {"measurement": "β-catenin transcriptional activity (Top-Flash)", "setting": "[12]", "result": "decreased"}, {"measurement": "glucose tolerance", "setting": "[7]", "result": "normalized"}, {"measurement": "Dkk1 expression in osteocytes of treated animals", "setting": "[9]", "result": "increased"}, {"measurement": "Sost expression in osteocytes of treated animals", "setting": "[9]", "result": "unaffected"}, {"measurement": "EC50 PPARα GAL-4", "setting": "[13]", "result": "No activity"}, {"measurement": "decrease of bone mass", "setting": "[14]", "result": 20, "unit": "%"}, {"measurement": "increase of adipocyte number", "setting": "[10]; 15 mg/kg/d, 8 weeks", "result": 5, "unit": "fold"}, {"measurement": "trabecular bone mass", "setting": "[10]; 15 mg/kg/d, 8 weeks", "result": "decreased"}, {"measurement": "mineral apposition rate (MAR) and bone formation rate (BFR)", "setting": "[10]; 15 mg/kg/d, 8 weeks", "result": "attenuated"}]}]}
